In patent US11261186B2, “Biaryl derivative as GPR120 agonist” (LG CHEM, LTD., priority 2014, dated 2022):

Molecular target: T1, hGPR120 (Homo sapiens, UniProt Q5NUL3)
T1 construct: expressed in transfected cells; host or cells: CHO-K1
T1 sequence (Q5NUL3 1-361): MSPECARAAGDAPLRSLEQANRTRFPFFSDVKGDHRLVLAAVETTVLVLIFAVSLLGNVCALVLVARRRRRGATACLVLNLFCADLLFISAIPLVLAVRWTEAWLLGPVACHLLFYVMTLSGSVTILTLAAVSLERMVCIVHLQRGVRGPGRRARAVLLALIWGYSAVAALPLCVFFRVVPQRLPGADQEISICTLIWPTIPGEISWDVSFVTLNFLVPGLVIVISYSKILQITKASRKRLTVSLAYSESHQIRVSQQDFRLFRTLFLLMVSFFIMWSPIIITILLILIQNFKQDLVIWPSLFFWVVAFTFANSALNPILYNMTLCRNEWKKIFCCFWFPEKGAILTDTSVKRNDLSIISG
Test: Measurement of Activity of GPR120 Agonist (Cell-Based Assay), Calcium 5 dye fluorescence
Details: CHO-K1 cells expressing Ga16 and hGPR120
In short: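 CHO-K1 cells co-expressing Gα16 and hGPR120 were seeded, cultured 18 h at 37 °C, then loaded 1 h with Calcium 5 dye. Serially diluted agonists (final 0.5% DMSO) were added and fluorescence read at Ex 485/Em 525 nm, expressed as percent relative to 1% DMSO-only wells.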

Structure (SMILES): O=C(O)CCCOc1c(F)cc(-c2cc(F)cc(OC3CCC3)c2)cc1Cl [Example 389, 4-[2-chloro-4-[3-(cyclobutoxy)-5-fluoro-phenyl]-6-fluoro-phenoxy]butanoic acid]
- EC50: < 0.2 µM

Structure (SMILES): CC(CCCC(=O)O)c1c(F)cc(-c2cccc3c2OC2(CCCC2)C3)cc1F (stereo not shown) [Example 264, 5-(2,6-difluoro-4-spiro[3H-benzofuran-2,1′-cyclopentan]-7-yl-phenyl)-hexanoic acid]
- EC50: 0.2 to 2 µM

Structure (SMILES): Cc1ccc(-c2cc(F)c(OCCCC(=O)O)c(F)c2)cc1OCC1CC1 [Example 532, 4-(3′-cyclopropylmethoxy-3,5-difluoro-4′-methyl-biphenyl-4-yloxy)-butyric acid]
- EC50: < 0.2 µM

Structure (SMILES): O=C(O)CC1CCN(c2c(F)cc(-c3cccc(OC4CCCC4)n3)cc2F)CC1 [Example 299, 2-[1-[4-[6-(cyclopentoxy)-2-pyridyl]-2,6-difluoro-phenyl]-4-piperidyl]acetic acid]
- EC50: 0.2 to 2 µM

Structure (SMILES): O=C(O)CCCOc1c(F)cc(-c2nccc(OC3CCC3)n2)cc1Cl [Example 422, 4-[2-chloro-4-(4-cyclobutoxy-pyrimidin-2-yl)-6-fluoro-phenoxy]-butyric acid]
- EC50: < 0.2 µM

Structure (SMILES): O=C(O)CCCC(F)(F)c1ccc(-c2cccnc2SC2CCCC2)cc1 [Example 184, 5-[4-(2-cyclopentylsulfanyl-pyridin-3-yl)-phenyl]-5,5-difluoro-pentanoic acid]
- EC50: < 0.2 µM

Structure (SMILES): O=C(O)CCCC(F)(F)c1ccc(-c2cccnc2OC2CCC2)cc1 [Example 185, 5-[4-(2-cyclobutoxy-pyridin-3-yl)-phenyl]-5,5-difluoro-pentanoic acid]
- EC50: < 0.2 µM

Structure (SMILES): CC(C)Sc1ncccc1-c1cc(F)c(C(C)CCCC(=O)O)c(F)c1 (stereo not shown) [Example 50, 5-[2,6-difluoro-4-(2-isopropylsulfanyl-3-pyridyl)-phenyl]hexanoic acid]
- EC50: < 0.2 µM

Structure (SMILES): Cc1cc(OCC2CC2)nc(-c2cc(F)c(OCCCC(=O)O)c(F)c2)n1 [Example 432, 4-[4-(4-cyclopropylmethoxy-6-methyl-pyrimidin-2-yl)-2,6-difluoro-phenoxy]-butyric acid]
- EC50: < 0.2 µM

Structure (SMILES): O=C(O)CC1CCN(c2ccc(-c3cccnc3OC3CCCC3)cc2F)CC1 [Example 139, 2-[1-[4-[2-(cyclopentoxy)-3-pyridyl]-2-fluoro-phenyl]-4-piperidyl]acetic acid]
- EC50: 0.2 to 2 µM

Structure (SMILES): CC(C)(CCCC(=O)O)c1ccc(-c2cccnc2SC2CCCC2)cc1 [Example 163, 5-[4-(2-cyclopentylsulfanyl-pyridin-3-yl)-phenyl]-5-methyl-hexanoic acid]
- EC50: 0.2 to 2 µM

Structure (SMILES): O=C(O)CC1CCN(c2c(F)cc(-c3nccc(OCC4CC4)n3)cc2F)CC1 [Example 332, 2-[1-[4-[4-(cyclopropylmethoxy)pyrimidin-2-yl]-2,6-difluoro-phenyl]-4-piperidyl]acetic acid]
- EC50: < 0.2 µM

Structure (SMILES): Cc1cc(OC2CCC2)nc(-c2cc(F)c(OCCCC(=O)O)c(F)c2)c1 [Example 395, 4-[4-[6-(cyclobutoxy)-4-methyl-2-pyridyl]-2,6-difluoro-phenoxy]butanoic acid]
- EC50: < 0.2 µM

Structure (SMILES): Cc1ccc(OCC2CCC2)cc1-c1cc(F)c(OCCCC(=O)O)c(F)c1 [Example 530, 4-(5′-cyclobutylmethoxy-3,5-difluoro-2′-methyl-biphenyl-4-yloxy)-butyric acid]
- EC50: < 0.2 µM

Structure (SMILES): CC(C)Sc1ncccc1-c1cc(F)c(N2CCC(CC(=O)O)C2)c(F)c1 (stereo not shown) [Example 124, 2-[1-[2,6-difluoro-4-(2-isopropylsulfanyl-3-pyridyl)phenyl]pyrrolidin-3-yl]acetic acid]
- EC50: < 0.2 µM

Structure (SMILES): O=C(O)COCC(F)(F)c1ccc(-c2cccc(OC3CCC3)n2)cc1 [Example 174, {2-[4-(6-cyclobutoxy-pyridin-2-yl)-phenyl]-2,2-difluoro-ethoxy}-acetic acid]
- EC50: 0.2 to 2 µM

Structure (SMILES): O=C(O)CC1CCN(c2c(F)cc(-c3ncnc4c3CCC4)cc2F)CC1 [Example 382, 2-[1-[4-(6,7-dihydro-5H-cyclopenta[d]pyrimidin-4-yl)-2,6-difluoro-phenyl]-4-piperidyl]acetic acid]
- EC50: > 20 µM

Structure (SMILES): O=C(O)CCCOc1c(F)cc(-c2cncc(OCC3CC3)n2)cc1F [Example 434, 4-[4-(6-cyclopropylmethoxy-pyrazin-2-yl)-2,6-difluoro-phenoxy]-butyric acid]
- EC50: < 0.2 µM

Structure (SMILES): COc1ccc(-c2ccc3c(c2)CCC(CCC(=O)O)O3)c2c1OC(C)(C)C2 (stereo not shown) [Example 273, 3-[6-(7-methoxy-2,2-dimethyl-2,3-dihydro-benzofuran-4-yl)-chroman-2-yl]-propionic acid]
- EC50: 2 to 20 µM

Structure (SMILES): CCCOc1cccc(-c2cc(F)c(N3CCC(CC(=O)O)CC3)c(F)c2)n1 [Example 295, 2-[1-[2,6-difluoro-4-(6-propoxy-2-pyridyl)phenyl]-4-piperidyl]acetic acid]
- EC50: < 0.2 µM

Structure (SMILES): O=C(O)CC1CCN(c2c(F)cc(-c3cccc4c3OC3(CCCC3)O4)cc2F)CC1 [Example 453, 2-[1-(2,6-difluoro-4-spiro[1,3-benzodioxol-2,1′-cyclopentan]-4-yl-phenyl)-4-piperidyl]acetic acid]
- EC50: 0.2 to 2 µM

Structure (SMILES): CC(C)Oc1ccc(F)cc1-c1cc(F)c(N(C)CCCC(=O)O)c(F)c1 [Example 216, 4-[methyl-(3,5,5′-trifluoro-2′-isopropoxy-biphenyl-4-yl)-amino]-butyric acid]
- EC50: < 0.2 µM

Structure (SMILES): CCOc1cc(C)nc(-c2cc(F)c(N3CCC(CC(=O)O)C3)c(F)c2)n1 (stereo not shown) [Example 590, {1-[4-(4-ethoxy-6-methyl-pyrimidin-2-yl)-2,6-difluoro-phenyl]-pyrrolidin-3-yl}-acetic acid]
- EC50: < 0.2 µM

Structure (SMILES): COc1ccc(-c2cc(F)c(N3CCC(CC(=O)O)CC3)c(F)c2)cc1OC1CCC1 [Example 305, 2-[1-[4-[3-(cyclobutoxy)-4-methoxy-phenyl]-2,6-difluoro-phenyl]-4-piperidyl]acetic acid]
- EC50: 0.2 to 2 µM

Structure (SMILES): O=C(O)COc1ccc2cc(-c3cccc(OC4CCCC4)n3)ccc2c1 [Example 3, [6-(6-cyclopentyloxy-pyridin-2-yl)-naphthalen-2-yloxy]-acetic acid]
- EC50: 0.2 to 2 µM

Structure (SMILES): O=C(O)CCCN1CCc2cc(-c3cccnc3SC3CCCC3)ccc21 [Example 132, 4-[5-(2-cyclopentylsulfanyl-3-pyridyl)indolin-1-yl]butanoic acid]
- EC50: < 0.2 µM

Structure (SMILES): COc1cccc(-c2cc(F)c(OCCCC(=O)O)c(F)c2)c1OC [Example 446, 4-[4-(2,3-dimethoxyphenyl)-2,6-difluoro-phenoxy]butanoic acid]
- EC50: 0.2 to 2 µM

Structure (SMILES): CC(C)Sc1ncccc1-c1cc(F)c(-n2cc(CC(=O)O)cn2)c(F)c1 [Example 122, 2-[1-[2,6-difluoro-4-(2-isopropylsulfanyl-3-pyridyl)phenyl]pyrazol-4-yl]acetic acid]
- EC50: 2 to 20 µM

Structure (SMILES): CC(CCCC(=O)O)c1c(F)cc(-c2cncc(OC3CCC3)n2)cc1F (stereo not shown) [Example 399, 5-[4-[6-(cyclobutoxy)pyrazin-2-yl]-2,6-difluoro-phenyl]hexanoic acid]
- EC50: < 0.2 µM

Structure (SMILES): Cc1cc(OC2CCC2)nc(-c2cc(F)c(N3CCC(CC(=O)O)C3)c(F)c2)c1 (stereo not shown) [Example 577, {1-[4-(6-cyclobutoxy-4-methyl-pyridin-2-yl)-2,6-difluoro-phenyl]-pyrrolidin-3-yl}-acetic acid]
- EC50: 0.2 to 2 µM

Structure (SMILES): O=C(O)CC1CCN(c2c(F)cc(-c3cccnc3OC3CCOC3)cc2F)CC1 (stereo not shown) [Example 103, 2-[1-[2,6-difluoro-4-(2-tetrahydrofuran-3-yloxy-3-pyridyl)phenyl]-4-piperidyl]acetic acid]
- EC50: 0.2 to 2 µM

Structure (SMILES): CC(C)Oc1cccc(-c2cc(F)c(OCCCC(=O)O)c(F)c2)c1 [Example 18, 4-(3,5-difluoro-3′-isopropoxy-biphenyl-4-yloxy)-butyric acid]
- EC50: < 0.2 µM

Structure (SMILES): CCCOc1cccc(-c2cc(F)c(N3CCC(CC(=O)O)CC3)c(F)c2)c1OCCC [Example 458, 2-[1-[4-(2,3-dipropoxyphenyl)-2,6-difluoro-phenyl]-4-piperidyl]acetic acid]
- EC50: 0.2 to 2 µM

Structure (SMILES): COc1ccc(-c2cc(F)c(OCCCC(=O)O)c(F)c2)cc1OCC1CC1 [Example 526, 4-(3′-cyclopropylmethoxy-3,5-difluoro-4′-methoxy-biphenyl-4-yloxy)-butyric acid]
- EC50: < 0.2 µM

Structure (SMILES): CC(C)Sc1ncccc1-c1cc(F)c(N2CCCC(CC(=O)O)C2)c(F)c1 (stereo not shown) [Example 108, 2-[1-[2,6-difluoro-4-(2-isopropylsulfanyl-3-pyridyl)phenyl]-3-piperidyl]acetic acid]
- EC50: 2 to 20 µM

Structure (SMILES): CCN(CCCC(=O)O)c1c(F)cc(-c2cccnc2OC(C)C)cc1F [Example 226, 4-{[2,6-difluoro-4-(2-isopropoxy-pyridin-3-yl)-phenyl]-ethyl-amino}-butyric acid]
- EC50: 0.2 to 2 µM

Structure (SMILES): O=C(O)CCCOc1ccc(-c2cccnc2OC2CCCC2)cc1F [Example 234, 4-[4-(2-cyclopentyloxy-pyridin-3-yl)-2-fluoro-phenoxy]-butyric acid]
- EC50: < 0.2 µM

Structure (SMILES): O=C(O)CCCOc1c(F)cc(-c2cccc(OCC3CC3)c2)cc1Cl [Example 406, 4-(5-chloro-3′-cyclopropylmethoxy-3-fluoro-biphenyl-4-yloxy)-butyric acid]
- EC50: < 0.2 µM

Structure (SMILES): O=C(O)CCCOc1c(F)cc(-c2nccc(OCC3CC3)n2)cc1F [Example 433, 4-[4-(4-cyclopropylmethoxy-pyrimidin-2-yl)-2,6-difluoro-phenoxy]-butyric acid]
- EC50: < 0.2 µM

Structure (SMILES): O=C(O)CCCOc1c(F)cc(-c2cccc3c2OC(F)(F)O3)cc1F [Example 290, 4-[4-(2,2-difluoro-benzo[1,3]dioxol-4-yl)-2,6-difluoro-phenoxy]-butyric acid]
- EC50: < 0.2 µM
